Where two headings read alike, the source gives them in different places.
How the values were obtained:
[1] = system: IL-17A release in mouse splenocytes; test: IL-17A release, mouse splenocytes, anti-CD3 + anti-CD28; assay type: cell-based; settings: Splenocyte, anti-CD3 + anti-CD28, n = 13, read-out: Cellular activity: Mouse IC50, IL-17A release
Protocol: Inhibition of RORγ by PCCR-1 was also estimated in a functional assay by measuring the inhibition of Th17 dependent cytokine IL-17A release in human peripheral blood mononuclear cells (PBMCs), mouse splenocytes and canine PBMC stimulated with their respective anti-CD3 and anti-CD28 antibodies.
Splenocytes were prepared from 6–8 week old BALB/c mice and cells were seeded in 96-well plates coated with mouse anti-CD3 mAb (10 µg/mL). Cells were treated with test compounds for 30 min followed by stimulation with mouse anti- CD28 mAb (3 µg/mL) for 72 h at 37 °C in 5% CO2 incubator. The supernatant was used for estimating mouse IL-17 by ELISA.

[2] = system: IL-17F cytokine from human PBMC; test: IL-17F inhibition, human PBMC; assay type: cell-based; settings: hPBMC, read-out: potency, IL-17F levels
[3] = system: IL-17 in peritoneal macrophages; test: IL-17 release, mouse peritoneal macrophages, LPS; assay type: cell-based; settings: Peritoneal macrophage, n = 2, read-out: IC50, IL-17 inhibition
Protocol: The peritoneal neutrophils or macrophages were isolated from C57BL/6 male mice or BALB/c female mice (6–8 wks; 18–22 g) injected with 3% or 4% thioglycollate broth. After 4 h or 4 days, RPMI medium was injected into the peritoneal cavity of mouse and peritoneal lavage was collected. The lavage was pooled and spun at 800 rpm for 10 min. The pellet was re-suspended in 1X Gey’s solution for 5 min followed by PBS wash. In case of neutrophils, the isolated cells were seeded in 48 well plate for 1.5 h. After 1.5 h, the supernatant containing peritoneal neutrophils were collected and centrifuged at 2000 rpm for 10 min and the pellet were re-suspended in 2% RPMI. In case of isolated peritoneal macrophages, the cells were seeded in 48 well plate for 3–4 h followed by PBS wash. Both the neutrophils and macrophages were treated with PCCR-1 in 2% RPMI for 1 h followed by stimulation with 10 µg/ml or 5 µg/ml of LPS for 18 h or 24 h. The supernatant collected for IL-17 estimation by ELISA.

[4] = system: T1, RARα; test: TR-FRET selectivity binding assay, RARα
T1 construct: purchased Invitrogen
Source text: (§1) Based on the homology of the ligand binding domains, 3 different isoforms of ROR (hRORα, hRORβ and hRORγ) are reported. Small variations in the LBD regions possibly lead to differences in competitive binding between the nuclear receptors of the ROR isoforms (Fig. 1b). Similar to the assessment of RORγ binding assay, TR-FRET binding assays were also used to assess the affinity of PCCR-1 for other ROR isoforms. […] This was reconfirmed in cellular functional assays for the selected isoforms and nuclear receptors using Gal4 DBD with luciferase reporter system from Indigo (PA, USA). […] In addition, both cellular agonist and antagonist effects as well as for enzyme activity were evaluated with a known reference compound for each target, using a radiolabeled method (Eurofins Cerep, France, Table 1).
For selectivity, the ROR isoforms RORα, FXR, LXRα, LXRβ, RXR, RARα were incubated with compound for 60 min at 22 °C followed by detection mix containing respective agonist (All trans retinoic acid for RARα, T0901317 for LXRα, LXRβ, 9-cis Retinoic acid for RXR, GW-4064 for FXR) and coactivator peptide (FD22 for RORα, PGC1α for RXR, RARα, TRAP220 for LXRα, LXRβ, SRC2-2 for FXR) and Tb-anti GST antibody prepared in assay buffer were added into a 384-well white plate. Reading taken after overnight incubation and the data analysis done as per the protocol mentioned in RORγt-LBD and co-activator ligand binding assay.

[5] = system: Cerep Panel of receptors, ion channels and enzymes; test: Cerep panel of receptors (binding/functional assays); set-up: key: NSE No significant effect; V wk very weak (very low-level agonist activity seen with mPPARγ); settings: at 10 µM, except targets listed in the next line
Source text: as §1

[6] = target: T2, Alpha 1A (Homo sapiens, UniProt P35348); test: Cerep panel, Alpha 1A (antagonist); assay type: cell-based; settings: read-out: IC50 Alpha 1A (antg)
T2 construct: Eurofins Cerep
T2 sequence (P35348 whole entry): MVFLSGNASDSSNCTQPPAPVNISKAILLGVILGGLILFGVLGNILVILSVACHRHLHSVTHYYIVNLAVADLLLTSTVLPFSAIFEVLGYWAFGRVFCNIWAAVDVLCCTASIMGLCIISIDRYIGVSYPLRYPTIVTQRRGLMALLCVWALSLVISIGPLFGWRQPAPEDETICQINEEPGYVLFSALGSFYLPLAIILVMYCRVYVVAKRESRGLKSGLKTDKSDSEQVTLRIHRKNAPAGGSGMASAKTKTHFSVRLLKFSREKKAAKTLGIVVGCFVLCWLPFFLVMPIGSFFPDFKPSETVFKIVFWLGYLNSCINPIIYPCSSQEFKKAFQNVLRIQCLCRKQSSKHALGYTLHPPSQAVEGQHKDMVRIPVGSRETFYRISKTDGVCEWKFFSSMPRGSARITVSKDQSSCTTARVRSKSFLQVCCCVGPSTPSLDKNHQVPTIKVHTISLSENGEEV
Source text: as §1

[7] = target: T3, Alpha 1D (Homo sapiens, UniProt P25100); test: Cerep panel, Alpha 1D
T3 construct: Eurofins Cerep
T3 sequence (P25100 whole entry): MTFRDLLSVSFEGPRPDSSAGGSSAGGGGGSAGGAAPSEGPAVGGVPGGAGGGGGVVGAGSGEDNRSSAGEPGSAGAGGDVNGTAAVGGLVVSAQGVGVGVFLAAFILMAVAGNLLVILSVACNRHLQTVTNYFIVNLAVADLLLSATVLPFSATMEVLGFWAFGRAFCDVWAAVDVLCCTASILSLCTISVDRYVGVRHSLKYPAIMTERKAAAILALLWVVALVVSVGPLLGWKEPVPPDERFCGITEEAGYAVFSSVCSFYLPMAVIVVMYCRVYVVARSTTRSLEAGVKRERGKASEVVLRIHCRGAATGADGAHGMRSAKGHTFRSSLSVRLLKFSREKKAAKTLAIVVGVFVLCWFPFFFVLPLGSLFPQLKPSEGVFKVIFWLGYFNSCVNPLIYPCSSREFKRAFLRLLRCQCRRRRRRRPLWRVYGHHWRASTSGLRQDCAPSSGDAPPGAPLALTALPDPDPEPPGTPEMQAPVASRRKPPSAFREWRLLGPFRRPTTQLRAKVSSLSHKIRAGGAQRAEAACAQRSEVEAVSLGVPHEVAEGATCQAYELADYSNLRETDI
Source text: as §1

[8] = target: hERG (Homo sapiens, UniProt Q12809); test: hERG; settings: rated moderate
hERG, sequence (Q12809 whole entry): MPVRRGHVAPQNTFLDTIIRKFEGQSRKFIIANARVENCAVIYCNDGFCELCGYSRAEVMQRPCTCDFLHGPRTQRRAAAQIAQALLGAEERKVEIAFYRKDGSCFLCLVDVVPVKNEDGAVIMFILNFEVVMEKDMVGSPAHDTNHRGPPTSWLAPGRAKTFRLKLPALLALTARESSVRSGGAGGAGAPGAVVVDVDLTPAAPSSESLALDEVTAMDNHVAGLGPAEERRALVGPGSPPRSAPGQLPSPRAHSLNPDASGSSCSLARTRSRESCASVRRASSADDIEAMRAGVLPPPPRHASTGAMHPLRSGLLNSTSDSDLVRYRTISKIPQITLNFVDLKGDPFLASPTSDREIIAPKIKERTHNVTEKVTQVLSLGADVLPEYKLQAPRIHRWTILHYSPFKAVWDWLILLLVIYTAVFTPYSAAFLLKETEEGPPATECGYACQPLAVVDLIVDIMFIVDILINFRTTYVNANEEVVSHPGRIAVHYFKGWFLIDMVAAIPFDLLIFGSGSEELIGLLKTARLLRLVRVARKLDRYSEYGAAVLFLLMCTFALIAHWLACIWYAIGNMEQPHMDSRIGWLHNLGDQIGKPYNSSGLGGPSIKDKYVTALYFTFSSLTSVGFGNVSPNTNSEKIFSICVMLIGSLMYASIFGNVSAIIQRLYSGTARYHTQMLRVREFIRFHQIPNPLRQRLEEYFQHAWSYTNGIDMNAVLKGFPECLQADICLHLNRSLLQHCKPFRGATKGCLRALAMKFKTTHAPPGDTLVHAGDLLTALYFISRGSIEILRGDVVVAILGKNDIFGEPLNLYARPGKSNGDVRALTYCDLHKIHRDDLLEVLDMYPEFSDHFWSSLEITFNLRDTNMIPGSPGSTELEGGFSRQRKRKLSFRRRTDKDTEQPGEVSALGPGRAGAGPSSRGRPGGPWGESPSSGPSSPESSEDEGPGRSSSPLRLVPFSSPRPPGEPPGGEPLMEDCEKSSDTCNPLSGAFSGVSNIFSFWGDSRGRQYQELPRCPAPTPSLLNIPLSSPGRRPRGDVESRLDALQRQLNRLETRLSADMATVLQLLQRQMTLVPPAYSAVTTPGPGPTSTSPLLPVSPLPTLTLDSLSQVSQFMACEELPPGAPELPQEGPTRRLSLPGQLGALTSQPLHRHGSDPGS

[9] = system: IL-17A in human whole blood; test: IL-17A inhibition, human whole blood, TCR stimulation; assay type: cell-based; settings: TCR stimulatory conditions, n = 10
Protocol: For whole blood assay the heparinized whole blood was diluted (1:1) with saline and added in 96-well plate pre-coated with human anti-CD3 mAb (10 µg/mL). Compound treatment was done for 30 min followed by co-stimulation with anti-CD28 mAb (2 µg/mL). After 48 h of incubation supernatant was used for IL-17 estimation by ELISA.

[10] = system: IL-17 from mouse BAL cells; test: Ex vivo IL-17 release, cultured BAL cells from cigarette smoke exposed mice; assay type: cell-based; settings: BAL cells from CS exposed mice
Protocol: The effect of PCCR-1 was evaluated ex vivo using BALf cells from an acute cigarette smoke induced animal model. Animals were exposed to cigarette smoke for 7 days and BALf cells were collected and treated with different doses of PCCR-1 under various stimulatory conditions. […] Stimulation by LPS may represent the inflammatory state during a COPD exacerbation, supporting a potential benefit of PCCR-1 in this disease state.
C57BL/6 mice were exposed to as per above mentioned protocol. On 7th day, animals were sacrificed and a tracheal cannula was inserted. Three times via the trachea, 1 mL of plain RPMI medium was instilled and recovered by gentle manual aspiration. The recovered BALf was centrifuged, the cell pellet washed twice and finally re-suspended in 5% FBS- RPMI. Isolated BAL cells were pre-incubated with different concentration of PCCR-1 for 60 min, followed by stimulating with 1 µg/ml soluble mouse anti-CD3 and 3 µg/ml mouse anti-CD28 mAbs and/or 100 ng/ml of LPS and incubated for 24-48 h at 37 °C. The supernatant was used for estimating IL-17 by ELISA.

Which IC50 [1] does the source give for `CCn1c(C(C)(C)Oc2ccc(F)cc2F)nc2cc(NC(=O)Cc3ccc(S(=O)(=O)CC)cc3)ccc21` [PCCR-1] here?
The IC50 was 0.766 µM.

And the IC50 [2]?
The IC50 was 0.788 µM.

What about the IC50 [3] of the same compound?
The IC50 was 1.39 µM.

And the “% Inhibition RARα” value ([4]; 1 µM)?
Its value is 0.00%.

And the “% Inhibition RARα” value ([4]; 10 µM)?
Its value is 0.00%.

What about the “Fold over hRORγ, RARα” value ([4]; vs RORg IC50 31.87 nM) of the same compound?
The value was over 313.7 fold.

And the “Cerep Panel of receptors (binding/functional assays)” value [5]?
Its value is “NSE at 10 µM except#”.

And the IC50 [6]?
Its IC50 is 0.19 µM.

What about the IC50 [7] of the same compound?
The IC50 was 0.55 µM.

What about the IC50 [8] of the same compound?
Its IC50 is 6 µM.

What about the IC50 [9] of the same compound?
Its IC50 is 3.05 µM.

And the IC50 ([10]; LPS induced, read-out: IL-17 IC50, Mouse BAL cells: LPS)?
The IC50 was 0.802 µM.

What about the IC50 ([10]; anti-CD3 + anti-CD28 induced, read-out: IL-17 IC50, Mouse BAL cells: CD3+CD28) of the same compound?
The IC50 was 0.903 µM.

What about the IC50 ([10]; basal, read-out: IL-17 IC50, Mouse BAL cells: Basal) of the same compound?
Its IC50 is 0.873 µM.
